Tests used:
[1] = tested on: Adult and microfilariae B. pahangi; assay: In vitro parasite motility assay, B. pahangi adult worms and microfilariae; format: cell-based, Brugia pahangi
[2] = tested on: Onchocerca gutturosa adult male worms; assay: Onchocerca gutturosa in vitro screening model: adult worm motility score and MTT/formazan viability; format: cell-based; conditions: read-out: O. gutt Activity class
Dirofilaria immitis = assay: Heartworm screen Dirofilaria immitis (stage DiMF/DiL4 not specified in the tables); format: cell-based; conditions: read-out: D. immitis Activity class
[3] = tested on: Adult and microfilariae B. malayi; assay: In vitro parasite motility assay, B. malayi adult worms and microfilariae; format: cell-based; conditions: Brugia malayi, read-out: B. malayi Activity class

SMILES: O=S(=O)(Nc1cccc2cccnc12)c1ncccc1F [Compound 269, 3-fluoro-N-(quinolin-8-yl)pyridine-2-sulfonamide]
- B. phange Activity class ([1]; activity against adult filaria (level E)): E (activity against adult filaria at compound concentrations below 1 μM (activity level E))
- IC50 [2]: < 200 nM
- IC50 (Dirofilaria immitis): 500 to 5000 nM

SMILES: O=S(=O)(Nc1cccc2cccnc12)c1cn[nH]c1 [Compound 267, N-(quinolin-8-yl)-1H-pyrazol-4-sulfonamide]
- IC50 [3]: 500 to 5000 nM

SMILES: N#Cc1cccc(S(=O)(=O)Nc2ccc(F)c3cccnc23)c1 [Compound 72, 3-cyano-N-(5-fluoroquin-olin-8-yl)ben-zenesulfon-amide]
- IC50 [2]: < 200 nM
- IC50 (Dirofilaria immitis): 500 to 5000 nM

SMILES: O=S(=O)(Nc1cccc2cccnc12)c1ccnc(C2CC2)c1 [Compound 152]
- IC50 [2]: < 200 nM
- IC50 (Dirofilaria immitis): 500 to 5000 nM

SMILES: CCn1ccnc1S(=O)(=O)Nc1cc(OC)cc2cccnc12 [Compound 117, 1-ethyl-N-(6-methoxyquin-olin-8-yl)-1H-imidazole-2-sulfonamide]
- IC50 [2]: 500 to 5000 nM
- IC50 (Dirofilaria immitis): 200 to 500 nM

SMILES: COc1ccnc(S(=O)(=O)Nc2cccc3cccnc23)c1 [Compound 222, 4-methoxy-N-(quinolin-8-yl)pyridine-2-sulfonamide]
- IC50 [2]: < 200 nM
- IC50 (Dirofilaria immitis): 200 to 500 nM

SMILES: Cn1cc(S(=O)(=O)Nc2cccc3cccnc23)cn1 [Compound 268, 1-methyl-N-(quinolin-8-yl)-1H-pyrazole-4-sulfonamide]
- IC50 [3]: 500 to 5000 nM
- B. phange Activity class ([1]; activity against microfilaria (level D)): D (activity against microfilaria at compound concentrations below 1 μM (activity level D))

SMILES: O=S(=O)(Nc1cccc2cccnc12)c1nccc2ccccc12 [Compound 225, N-(quinolin-8-yl)isoquinoline-1-sulfonamide]
- IC50 [2]: < 200 nM
- IC50 (Dirofilaria immitis): 500 to 5000 nM

SMILES: Cc1cccnc1S(=O)(=O)Nc1cccc2c(C(F)(F)F)ccnc12 [Compound 13, 3-methyl-N-(4-(trifluoro-methyl)quin-olin-8-yl)pyr-idine-2-sulfonamide]
- IC50 [2]: < 200 nM
- IC50 (Dirofilaria immitis): 200 to 500 nM
